Source: patent US20040009485A1, “Cellular arrays for the identification of altered gene expression” (priority 2002, published 2004)
Values joined by “and” are separate entries in the source; they are usually repeats but may differ in a detail not shown here. Identical values can stand only once. Like-named read-outs stand apart in the source and are kept apart here.

Key:
[1] = tested on: clpB-luxCDABE gene fusion; settings: 38 min; for Response Ratio: 4% ethanol; for Light production in LB + 4% ethanol: 37° C.
Procedure: Plasmid DNA was isolated from lux-a.pk043.d3, digested with restriction enzyme XmaI, and ligated with T4 DNA ligase. The ligation reaction was used to transform E. coli strain DPD1675 by electroporation. Transformants were selected by ampicillin resistance. […] Actively growing cultures at 37° C. in LB medium were treated with 4% ethanol arid light production was quantitated at 37° C. using a microplate luminometer (Dynex ML3000). Table 17 summarizes the average bioluminescence of duplicate samples at 38 min after treatment.

SOS regulon gene fusions = experiment: Stress response of SOS regulon luxCDABE gene fusions (nalidixic acid); assay type: cell-based, E. coli; settings: SOS regulon gene fusions; 5, 4, or 3% (v/v) ethanol
Procedure: (§1) To test the stress responses, one or two single colonies of each selected strain were used to inoculate 5.0 ml of LB medium containing 150 μg/ml of ampicillin. These cultures were grown overnight at 37° C. then diluted by adding 50 μl or 100 μl of the overnight culture into 10.0 ml of fresh LB medium (without ampicillin) and grown with agitation at 37° C. until the culture was in exponential phase with readings on a Klett-Summerson colorimeter containing the red filter of between 10 and 40. These actively growing cultures were immediately used to initiate a stress response experiment by adding 50 μl of cultures to 50 μl of LB medium containing various concentrations of chemical in the wells a 96 well luminometer plate. This division of the actively growing culture at the time of chemical addition ensured identical populations were present when the stress was imposed. Light production was measured in a Dynex ML3000 luminometer at 37° C. The dimensionless units of light production, relative light units (RLU), are obtained by comparison with the light reading from an internal light-emitting diode. The cycle mode of the ML3000 luminometer, similar to previous descriptions (Van Dyk et al., Appl. Environ. Microbiol. 60:1414-120) was used.
The ability of these promoter-luxCDABE fusions to report activation of the SOS stress response was tested using nalidixic acid, a known, potent chemical inducer. The final concentrations of nalidixic acid were 1, 5, 25, and 125 μg/ml for all but strain DPD2293, which was tested at 80, 40, 20, 10, 5, 2.5, and 1.25 μg/ml.
Specificity of responses was tested by measuring the effect of ethanol on these SOS regulon gene fusions.

[2] = tested on: heat shock regulon gene fusions; experiment: Stress response of heat shock regulon luxCDABE gene fusions (ethanol); assay type: cell-based, E. coli; settings: for 3% Ethanol Response ratio: 40 minutes, LB, treated/untreated
Procedure: as §1, with “used. […]” for “used.”

[3] = tested on: OxyR regulon gene fusions (ahpC-luxCDABE); settings: for H2O2 response ratio: ahpC fusion, 0.002% hydrogen peroxide, 30 minutes, LB
Procedure: as §1
To test if these strains would report on activation of the OxyR-controlled oxidative stress response, each was treated with hydrogen peroxide at 0.016, 0.008, 0.004, 0.002, 0.001, 0.0005, 0.00025%.

[4] = tested on: ahpC-luxCDABE fusions in E. coli host strain DPD2228 (pcnB80); settings: for H2O2 response ratio in pcnB- host: 0.002% hydrogen peroxide, 30 minutes, LB
Procedure: as §1

[5] = tested on: luxCDABE gene fusions in lexA+ host; experiment: Mitomycin C and nalidixic acid responses in lexA+ host; assay type: cell-based, E. coli; settings: for MitC Ratio, 2 hr 250 ng/ml: lexA+ host
Procedure: (§2) In addition, the effect of a lexAind mutation was tested to determine if any of these were part of the SOS regulon. The expectation is that SOS regulon member will be induced by both nalidixic acid and mitomycin C in a manner that is dependent on lexA function (Walker, G. C., (1996) Escherichia coli and Salmonella: Cellular and Molecular Biology ASM Press). […] This is consistent with the observation of upregulation of the b1728 mRNA transcript upon mitomycin C treatment in a LexA dependent fashion (Fernández de Henestrosa et al. (2000). Mol. Microbiol. 35:1560-1572). Likewise, two Gene fusions, those to oraA and yigN were identified is new members of the SOS regulon (Table 16). […] Negative, non-DNA damage responsive gene fusions were also included (Table 16).

[6] = tested on: luxCDABE gene fusions in lexAind host; experiment: Mitomycin C and nalidixic acid responses in lexAind host; assay type: cell-based, E. coli; settings: for MitC Ratio, 2 hr 250 ng/ml: lexAind host
Procedure: as §2

[7] = tested on: luxCDABE gene fusions of the Lux-A Collection; experiment: Induction of Lux-A Collection gene fusions by MMC (and yebF fusion by nalidixic acid); assay type: cell-based, E. coli
Procedure: The Lux-A Collection of reporter gene fusions was examined for presence of fusions to the genes in Table 11. […] Each of these was tested for induction by MMC at several doses over a time course of 100 minutes.
As expected, the expression of the known SOS genes was elevated; however the expression of several was elevated less than 2-fold (Table 12) and as such were within a large group of 792 genes the expression of which was elevated by 20% or more. Most of these are likely due to artifacts in the array data rather than to actual biologically relevant responses. To test if strains carrying luxCDABE gene fusions would yield the expected positive result, the three gene fusions that were available in the Lux-A Collection of reporter gene fusions were tested for mitomycin C responses.
In this case, a divergent promoter to the purT gene was present in the chromosomal fragment and strains containing the backward yebF fusion produced light. […] […] The orientation of the inserted segment to yield a fusion of yebF to the luxCDABE operon was confirmed by DNA sequence analysis.

[8] = tested on: SoxR/S regulon gene fusions; experiment: Stress response of SoxR/S regulon luxCDABE gene fusions (methyl viologen); assay type: cell-based, E. coli; settings: for Methyl viologen response ratio: 250 μg/ml, 120 minutes, LB, treated/untreated
Procedure: Like the SOS and heat shock regulon fusions, these had basal light production greater than the promoterless parental plasmid indicating the presence of a promoter. Responsiveness of four of these strains to a known inducer of the SoxR/S regulon, methyl viologen, was tested at 1000, 500, 250, 125, 62, 31 and 16 μg/ml. […] Table 8 gives the response ratio for 250 μg/ml at 120 minutes of treatment for the four tested strains. Here again, the biologically appropriate response was observed.

[9] = lux-a.pk054.c3 (DPD2243), clpB fusion
[10] = 1pxA 1pxB rnhB dnaE fusion (lux-a.pk061.c3)
[11] = dinG ybiB fusion (lux-a.pk0024.f5)
[12] = lacZ fusion (65.d4), negative control
[13] = yciG fusion (lux-a.pk006.b4), negative control

CCO [Ethanol, ethanol]
Response Ratio ([1]; Inverted lux-a.pk043.d3 (two transformants)): 6.5 and 5.5 | Light production in LB + 4% ethanol ([1]; lux-a.pk043.d3 (clpB promoter not operably linked)): 0.0025 RLU | Response Ratio [1, 9]: 9.4 | Light production in LB + 4% ethanol [1, 9]: 13.00 RLU | bioluminescence of SOS regulon gene fusions (specificity) (SOS regulon gene fusions): little to no increased biolumninescence | 3% Ethanol Response ratio ([2]; clpB fusion, DPD2243 (lux-a.pk054.c3)): 4.7 | bioluminescence compared with untreated culture ([2]; each of the six heat shock fusion strains, at least two of 5, 4, 3, 2 (v/v)% ethanol): increased bioluminescence | 3% Ethanol Response ratio ([2]; grpE fusion, DPD2241 (lux-a.pk057.h1)): 5.2 | 3% Ethanol Response ratio ([2]; lon fusion, DPD2242 (lux-a.pk021.g11)): 5.6 | 3% Ethanol Response ratio ([2]; rfaDFCL fusion, DPD2244 (lux-a.pk040.e4)): 1.4 | 3% Ethanol Response ratio ([2]; rpoD fusion, DPD2246 (lux-a.pk089.e7)): 2.4

OO [H2O2, hydrogen peroxide]
H2O2 response ratio ([3]; DPD2283 (lux-a.pk051.d5)): 1.3 | H2O2 response ratio ([3]; DPD2284 (lux-a.pk051.e3)): 1.6 | H2O2 response ratio ([3]; DPD2285 (lux-a.pk03.d6)): 1.2 | induction of bioluminescence ([3]; three ahpC-luxCDABE strains, 0.016-0.00025% hydrogen peroxide): minimally induced | induction of bioluminescence ([4]; both ahpC-luxCDABE strains in pcnB- host, each of seven conc 0.004-0.00006%): dramatically induced increased bioluminescence | H2O2 response ratio in pcnB- host ([4]; plasmid of DPD2283 (lux-a.pk051.d5) in DPD2228): 16.5 | H2O2 response ratio in pcnB- host ([4]; plasmid of DPD2284 (lux-a.pk051.e3) in DPD2228): 15.3

CO[C@@]12[C@H](COC(N)=O)C3=C(C(=O)C(C)=C(N)C3=O)N1C[C@@H]1N[C@@H]12 [MMC, mitomycin C]
MitC Ratio, 2 hr 250 ng/ml [5, 10]: 1.06 | MitC Ratio, 2 hr 250 ng/ml ([5]; b1728 fusion (lux-a.pk033.c5)): 8.97 | MitC Ratio, 2 hr 250 ng/ml ([5]; b1936 fusion (lux-a.pk0019.g1)): 1.22 | MitC Ratio, 2 hr 250 ng/ml [5, 11]: 5.01 | MitC Ratio, 2 hr 250 ng/ml ([5]; fusion (lux-a.pk0015.d6)): 1.12 | MitC Ratio, 2 hr 250 ng/ml [5, 12]: 0.80 | induction of b1728 promoter-luxCDABE fusion ([5]; lexA+ host (FIG. 9)): clearly induced | MitC Ratio, 2 hr 250 ng/ml ([5]; oraA fusion (lux-a.pk058.f5)): 15.27 | MitC Ratio, 2 hr 250 ng/ml ([5]; yaaF fusion (lux-a.pk031.e7)): 1.02 | MitC Ratio, 2 hr 250 ng/ml [5, 13]: 0.56 | MitC Ratio, 2 hr 250 ng/ml ([5]; yigN fusion (lux-a.pk046.f11)): 9.84 | MitC Ratio, 2 hr 250 ng/ml [6, 10]: 1.29 | MitC Ratio, 2 hr 250 ng/ml ([6]; b1728 fusion (lux-a.pk033.c5)): 0.90 | MitC Ratio, 2 hr 250 ng/ml ([6]; b1936 fusion (lux-a.pk0019.g1)): 2.46 | MitC Ratio, 2 hr 250 ng/ml [6, 11]: 1.15 | MitC Ratio, 2 hr 250 ng/ml ([6]; fusion (lux-a.pk0015.d6)): 1.73 | MitC Ratio, 2 hr 250 ng/ml [6, 12]: 1.24 | induction of b1728 promoter-luxCDABE fusion ([6]; lexAind host strain (FIG. 9)): not induced | MitC Ratio, 2 hr 250 ng/ml ([6]; oraA fusion (lux-a.pk058.f5)): 1.21 | MitC Ratio, 2 hr 250 ng/ml ([6]; yaaF fusion (lux-a.pk031.e7)): 0.99 | MitC Ratio, 2 hr 250 ng/ml [6, 13]: 0.61 | MitC Ratio, 2 hr 250 ng/ml ([6]; yigN fusion (lux-a.pk046.f11)): 0.93 | Induction of Fusion ([7]; b1847 (yebF)-luxCDABE fusion (when inverted), MMC): YES | Induction of Fusion ([7]; b1847 (yebF)-luxCDABE fusion (when inverted), MMC, listed as mitomycin C): induction by mitomycin C was demonstrated | Induction of Fusion ([7]; dinB (dinP)-luxCDABE fusion, several doses of MMC, time course of 100 minutes): YES | Induction of Fusion ([7]; dinF-luxCDABE fusion, MMC): YES | Induction of Fusion ([7]; dinG-luxCDABE fusion, MMC): YES | Induction of Fusion ([7]; recA-luxCDABE fusion, several doses of MMC, time course of 100 minutes): YES | Induction of Fusion ([7]; ruvA-luxCDABE fusion, several doses of MMC, time course of 100 minutes): YES | Induction of Fusion ([7]; uvrA-luxCDABE fusion, several doses of MMC, time course of 100 minutes): YES | Induction of Fusion ([7]; uvrD-luxCDABE fusion, MMC): YES

C[n+]1ccc(-c2cc[n+](C)cc2)cc1 [Methyl viologen, methyl viologen]
bioluminescence compared with untreated culture ([8]; each of four SoxR/S fusion strains, each of 1000, 500, 250, 125, 62, 31 and 16 μg/ml): induced increased bioluminescence | Methyl viologen response ratio ([8]; inaA fusion, DPD2087 (lux-a.pk014.a9)): 9.0 | Methyl viologen response ratio ([8]; poxB fusion, DPD3509 (lux-a.pk071.all)): 15.0 | Methyl viologen response ratio ([8]; ribA fusion, DPD2286 (lux-a.pk078.d2)): 4.7 | Methyl viologen response ratio ([8]; zwf fusion, DPD2272 (lux-a.pk082.g7)): 3.6
